Experimental data as given in ChEMBL document CHEMBL3885881, “DrugMatrix”.

Species: Rattus norvegicus
Assay: DrugMatrix - Regimen: Daily Repeat
Assay type: toxicity, organism-based, Sprague-Dawley
Design: regimen Daily Repeat, gender Male, age 6-8 weeks
Settings: in vivo, po, route oral GAVAGE, vehicle 100 % WATER; for ABSOLUTE BASOPHIL / ABSOLUTE EOSINOPHIL / ABSOLUTE LYMPHOCYTE / ABSOLUTE MONOCYTE / ABSOLUTE SEGMENTED NEUTROPHIL / BASOPHIL / EOSINOPHIL / ERYTHROCYTE COUNT / HEMATOCRIT / HEMOGLOBIN / LEUKOCYTE COUNT / LYMPHOCYTE / MEAN CORPUSCULAR HEMOGLOBIN / MEAN CORPUSCULAR HEMOGLOBIN CONCENTRATION / MEAN CORPUSCULAR VOLUME / MONOCYTE / NEUTROPHIL / NUCLEATED RED BLOOD CELLS / PLATELET COUNT: tissue Blood; for ALANINE AMINOTRANSFERASE / ALBUMIN / ALKALINE PHOSPHATASE / ASPARTATE AMINOTRANSFERASE / BLOOD UREA NITROGEN / CARBON DIOXIDE / CHLORIDE / CHOLESTEROL / CREATINE PHOSPHOKINASE / CREATININE / GLUCOSE / LACTATE DEHYDROGENASE / LIPASE / PHOSPHORUS / POTASSIUM / SODIUM / TOTAL BILIRUBIN / TOTAL PROTEIN / URIC ACID: tissue Plasma
[1] = 0 mg/kg, 72 h, dose level Control, time 3 day
[2] = 0 mg/kg, 120 h, dose level Control, time 5 day
[3] = 200 mg/kg, 72 h, dose level Low, time 3 day

With `CC(O)CO` (centres undefined) [PROPYLENE GLYCOL] the “ABSOLUTE BASOPHIL” value [1] was 0 CELLS/uL, the “ABSOLUTE EOSINOPHIL” value [1] was 40 CELLS/uL and the “ABSOLUTE LYMPHOCYTE” value [1] was 13599.5 CELLS/uL. The “ABSOLUTE MONOCYTE” value [1] was 239.33 CELLS/uL, the “ABSOLUTE SEGMENTED NEUTROPHIL” value [1] was 1021.17 CELLS/uL and the BASOPHIL [1] was 0%. The EOSINOPHIL [1] was 0.33%, the “ERYTHROCYTE COUNT” value [1] was 5.71 x10E6/uL and the HEMATOCRIT [1] was 36.35%. For the same compound, the HEMOGLOBIN [1] was 14.05 G/DL, the “LEUKOCYTE COUNT” value [1] was 14.9 x10E3/uL and the LYMPHOCYTE [1] was 91%. The “MEAN CORPUSCULAR HEMOGLOBIN” value [1] was 24.62 pg, the “MEAN CORPUSCULAR HEMOGLOBIN CONCENTRATION” value [1] was 38.65 G/DL and the “MEAN CORPUSCULAR VOLUME” value [1] was 63.7 fL. The MONOCYTE [1] was 1.5%, the NEUTROPHIL [1] was 7.17% and the “NUCLEATED RED BLOOD CELLS” value [1] was 0.33 /100WBC. For the same compound, the “PLATELET COUNT” value [1] was 1225.5 x10E3/uL, the “ALANINE AMINOTRANSFERASE” value [1] was 48.5 u/L and the ALBUMIN [1] was 4.18 G/DL. For the same compound, the “ALKALINE PHOSPHATASE” value [1] was 390.83 u/L, the “ASPARTATE AMINOTRANSFERASE” value [1] was 89 u/L and the “BLOOD UREA NITROGEN” value [1] was 14.83 mg/dL. The “CARBON DIOXIDE” value [1] was 24.83 mmol/L, the CHLORIDE [1] was 100.83 MEQ/L and the CHOLESTEROL [1] was 72.5 mg/dL. For the same compound, the “CREATINE PHOSPHOKINASE” value [1] was 503 u/L, the CREATININE [1] was 0.2 mg/dL and the GLUCOSE [1] was 163 mg/dL. The “LACTATE DEHYDROGENASE” value [1] was 316.83 u/L, the LIPASE [1] was 9.83 u/L and the PHOSPHORUS [1] was 11.57 mg/dL. For the same compound, the POTASSIUM [1] was 6.16 MEQ/L, the SODIUM [1] was 142.62 MEQ/L and the “TOTAL BILIRUBIN” value [1] was 0.2 mg/dL. For the same compound, the “TOTAL PROTEIN” value [1] was 5.8 G/DL, the “URIC ACID” value [1] was 1.65 mg/dL and the “ABSOLUTE BASOPHIL” value [2] was 0 CELLS/uL. The “ABSOLUTE EOSINOPHIL” value [2] was 21 CELLS/uL, the “ABSOLUTE LYMPHOCYTE” value [2] was 14288.5 CELLS/uL and the “ABSOLUTE MONOCYTE” value [2] was 205.33 CELLS/uL. The “ABSOLUTE SEGMENTED NEUTROPHIL” value [2] was 968.5 CELLS/uL, the BASOPHIL [2] was 0% and the EOSINOPHIL [2] was 0.17%. For the same compound, the “ERYTHROCYTE COUNT” value [2] was 5.83 x10E6/uL, the HEMATOCRIT [2] was 36.53% and the HEMOGLOBIN [2] was 14.4 G/DL. For the same compound, the “LEUKOCYTE COUNT” value [2] was 15.48 x10E3/uL, the LYMPHOCYTE [2] was 92% and the “MEAN CORPUSCULAR HEMOGLOBIN” value [2] was 24.72 pg. For the same compound, the “MEAN CORPUSCULAR HEMOGLOBIN CONCENTRATION” value [2] was 39.43 G/DL, the “MEAN CORPUSCULAR VOLUME” value [2] was 62.68 fL and the MONOCYTE [2] was 1.33%. The NEUTROPHIL [2] was 6.5%, the “NUCLEATED RED BLOOD CELLS” value [2] was 0.17 /100WBC and the “PLATELET COUNT” value [2] was 1280.5 x10E3/uL. The “ALANINE AMINOTRANSFERASE” value [2] was 50 u/L, the ALBUMIN [2] was 4.28 G/DL and the “ALKALINE PHOSPHATASE” value [2] was 380.17 u/L. The “ASPARTATE AMINOTRANSFERASE” value [2] was 82.67 u/L, the “BLOOD UREA NITROGEN” value [2] was 15.33 mg/dL and the “CARBON DIOXIDE” value [2] was 27.17 mmol/L. For the same compound, the CHLORIDE [2] was 100.33 MEQ/L, the CHOLESTEROL [2] was 60.67 mg/dL and the “CREATINE PHOSPHOKINASE” value [2] was 441.5 u/L. For the same compound, the CREATININE [2] was 0.16 mg/dL, the GLUCOSE [2] was 146 mg/dL and the “LACTATE DEHYDROGENASE” value [2] was 189.33 u/L. For the same compound, the LIPASE [2] was 9.17 u/L, the PHOSPHORUS [2] was 11.67 mg/dL and the POTASSIUM [2] was 6.86 MEQ/L. For the same compound, the SODIUM [2] was 142.33 MEQ/L, the “TOTAL BILIRUBIN” value [2] was 0.2 mg/dL and the “TOTAL PROTEIN” value [2] was 6.12 G/DL. The “URIC ACID” value [2] was 1.82 mg/dL, the “ABSOLUTE BASOPHIL” value [3] was 0 CELLS/uL and the “ABSOLUTE EOSINOPHIL” value [3] was 56 CELLS/uL. The “ABSOLUTE LYMPHOCYTE” value [3] was 15882 CELLS/uL, the “ABSOLUTE MONOCYTE” value [3] was 135.33 CELLS/uL and the “ABSOLUTE SEGMENTED NEUTROPHIL” value [3] was 1393.33 CELLS/uL. For the same compound, the BASOPHIL [3] was 0%, the EOSINOPHIL [3] was 0.33% and the “ERYTHROCYTE COUNT” value [3] was 5.52 x10E6/uL. For the same compound, the HEMATOCRIT [3] was 35.37%, the HEMOGLOBIN [3] was 13.53 G/DL and the “LEUKOCYTE COUNT” value [3] was 17.47 x10E3/uL. The LYMPHOCYTE [3] was 90.67%, the “MEAN CORPUSCULAR HEMOGLOBIN” value [3] was 24.5 pg and the “MEAN CORPUSCULAR HEMOGLOBIN CONCENTRATION” value [3] was 38.27 G/DL. The “MEAN CORPUSCULAR VOLUME” value [3] was 64.1 fL, the MONOCYTE [3] was 0.67% and the NEUTROPHIL [3] was 8.33%. The “NUCLEATED RED BLOOD CELLS” value [3] was 0.33 /100WBC, the “PLATELET COUNT” value [3] was 1345.33 x10E3/uL and the “ALANINE AMINOTRANSFERASE” value [3] was 59 u/L. For the same compound, the ALBUMIN [3] was 4.47 G/DL, the “ALKALINE PHOSPHATASE” value [3] was 378.33 u/L and the “ASPARTATE AMINOTRANSFERASE” value [3] was 90.33 u/L. For the same compound, the “BLOOD UREA NITROGEN” value [3] was 16.33 mg/dL, the “CARBON DIOXIDE” value [3] was 27.33 mmol/L and the CHLORIDE [3] was 99.67 MEQ/L. The CHOLESTEROL [3] was 81.33 mg/dL, the “CREATINE PHOSPHOKINASE” value [3] was 318 u/L and the CREATININE [3] was 0.22 mg/dL. For the same compound, the GLUCOSE [3] was 153.67 mg/dL, the “LACTATE DEHYDROGENASE” value [3] was 212.33 u/L and the LIPASE [3] was 9 u/L. The PHOSPHORUS [3] was 13.4 mg/dL, the POTASSIUM [3] was 7.26 MEQ/L and the SODIUM [3] was 145.23 MEQ/L. The “TOTAL BILIRUBIN” value [3] was 0.2 mg/dL, the “TOTAL PROTEIN” value [3] was 6.13 G/DL and the “URIC ACID” value [3] was 2.2 mg/dL.
